These are literature values, as cited in publication PMC8391922, “The Combined Effect of Branching and Elongation on the Bioactivity Profile of Phytocannabinoids. Part I: Thermo-TRPs” (Biomedicines, 2021).

For one data set, the target named is T1, rat TRPA1 (Rattus norvegicus, UniProt Q6RI86).
T1 construct: expressed in transfected cells; host or cells: HEK-293
The arrangement: method as in PMID 21175579. The conditions noted are these: cited from earlier work; for IC50: against agonist AITC 100 μM; for TRPA1 Efficacy (%ITC 100 μM): percentage of the effect of 100 μM allylisothiocyanate.

A further data set addresses T2, human TRPV1 (Homo sapiens, UniProt Q8NER1).
T2 construct: expressed in transfected cells; host or cells: HEK-293
Also noted: method as in PMID 21175579.

The target in another data set is T3, rat TRPM8 (Rattus norvegicus, UniProt Q8R455).
T3 construct: expressed in transfected cells; host or cells: HEK-293
T3 sequence (Q8R455 whole entry): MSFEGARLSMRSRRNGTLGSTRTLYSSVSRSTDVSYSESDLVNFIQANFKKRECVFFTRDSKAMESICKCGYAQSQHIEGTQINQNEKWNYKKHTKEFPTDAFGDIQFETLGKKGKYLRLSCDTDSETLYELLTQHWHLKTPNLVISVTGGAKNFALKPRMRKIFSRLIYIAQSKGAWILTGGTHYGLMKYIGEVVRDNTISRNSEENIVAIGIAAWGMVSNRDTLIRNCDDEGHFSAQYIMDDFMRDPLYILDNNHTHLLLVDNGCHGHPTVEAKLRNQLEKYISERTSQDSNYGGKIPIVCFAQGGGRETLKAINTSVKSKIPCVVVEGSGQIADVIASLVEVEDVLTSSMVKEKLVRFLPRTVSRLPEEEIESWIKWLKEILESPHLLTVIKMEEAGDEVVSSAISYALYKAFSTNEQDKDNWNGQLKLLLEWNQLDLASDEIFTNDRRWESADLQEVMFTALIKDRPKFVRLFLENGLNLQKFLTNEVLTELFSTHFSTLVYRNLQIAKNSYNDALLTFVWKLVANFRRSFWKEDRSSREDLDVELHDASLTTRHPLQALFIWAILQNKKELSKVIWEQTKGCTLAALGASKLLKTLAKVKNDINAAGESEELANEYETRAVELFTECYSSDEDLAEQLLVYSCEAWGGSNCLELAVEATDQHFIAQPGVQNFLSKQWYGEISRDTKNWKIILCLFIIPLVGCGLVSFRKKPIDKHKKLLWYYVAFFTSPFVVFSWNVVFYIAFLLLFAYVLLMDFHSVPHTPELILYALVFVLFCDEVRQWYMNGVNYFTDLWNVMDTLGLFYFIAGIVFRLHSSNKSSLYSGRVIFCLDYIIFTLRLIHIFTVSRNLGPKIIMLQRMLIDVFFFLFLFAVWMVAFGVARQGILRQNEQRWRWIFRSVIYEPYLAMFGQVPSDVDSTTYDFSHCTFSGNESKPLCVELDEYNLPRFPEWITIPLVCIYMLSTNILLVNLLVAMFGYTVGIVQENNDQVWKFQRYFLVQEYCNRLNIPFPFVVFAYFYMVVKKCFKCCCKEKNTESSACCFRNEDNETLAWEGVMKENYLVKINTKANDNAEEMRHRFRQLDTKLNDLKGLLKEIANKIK
Also noted: method as in PMID 21175579.

A further data set concerns the target T4, rat TRPV2 (Rattus norvegicus, UniProt Q9WUD2).
T4 construct: expressed in transfected cells; host or cells: HEK-293
T4 sequence (Q9WUD2 1-761): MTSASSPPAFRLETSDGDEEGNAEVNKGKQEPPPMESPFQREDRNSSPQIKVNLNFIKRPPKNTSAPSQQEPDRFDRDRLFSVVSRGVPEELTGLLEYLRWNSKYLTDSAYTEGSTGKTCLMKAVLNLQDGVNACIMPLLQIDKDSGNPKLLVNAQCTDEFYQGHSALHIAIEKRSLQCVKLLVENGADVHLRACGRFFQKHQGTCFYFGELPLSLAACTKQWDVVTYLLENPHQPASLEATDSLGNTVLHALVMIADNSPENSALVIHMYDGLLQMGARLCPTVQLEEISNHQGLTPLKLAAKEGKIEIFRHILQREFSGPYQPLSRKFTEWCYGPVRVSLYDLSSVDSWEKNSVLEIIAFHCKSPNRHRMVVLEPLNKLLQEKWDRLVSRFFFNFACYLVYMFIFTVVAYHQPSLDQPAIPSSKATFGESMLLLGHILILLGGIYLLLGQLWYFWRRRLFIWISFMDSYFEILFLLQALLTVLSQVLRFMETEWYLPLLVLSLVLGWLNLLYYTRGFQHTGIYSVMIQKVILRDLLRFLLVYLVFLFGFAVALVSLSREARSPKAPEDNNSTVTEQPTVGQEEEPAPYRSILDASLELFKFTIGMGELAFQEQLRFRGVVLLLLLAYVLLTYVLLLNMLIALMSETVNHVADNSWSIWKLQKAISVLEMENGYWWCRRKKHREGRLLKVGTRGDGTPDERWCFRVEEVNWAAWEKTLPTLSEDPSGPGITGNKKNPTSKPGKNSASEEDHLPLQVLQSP
Also noted: method as in PMID 21175579, PMID 21726418. The conditions noted are these: cited from earlier work; for IC50: against agonist CBD 2 μM; for TRPV2 Efficacy (% IM 4 μM): percentage of the response to ionomycin 4 μM.

The target in the next data set is T5, rat TRPV3 (Rattus norvegicus, UniProt Q4QYD9).
T5 construct: expressed in transfected cells; host or cells: HEK-293
T5 sequence (Q4QYD9 1-791): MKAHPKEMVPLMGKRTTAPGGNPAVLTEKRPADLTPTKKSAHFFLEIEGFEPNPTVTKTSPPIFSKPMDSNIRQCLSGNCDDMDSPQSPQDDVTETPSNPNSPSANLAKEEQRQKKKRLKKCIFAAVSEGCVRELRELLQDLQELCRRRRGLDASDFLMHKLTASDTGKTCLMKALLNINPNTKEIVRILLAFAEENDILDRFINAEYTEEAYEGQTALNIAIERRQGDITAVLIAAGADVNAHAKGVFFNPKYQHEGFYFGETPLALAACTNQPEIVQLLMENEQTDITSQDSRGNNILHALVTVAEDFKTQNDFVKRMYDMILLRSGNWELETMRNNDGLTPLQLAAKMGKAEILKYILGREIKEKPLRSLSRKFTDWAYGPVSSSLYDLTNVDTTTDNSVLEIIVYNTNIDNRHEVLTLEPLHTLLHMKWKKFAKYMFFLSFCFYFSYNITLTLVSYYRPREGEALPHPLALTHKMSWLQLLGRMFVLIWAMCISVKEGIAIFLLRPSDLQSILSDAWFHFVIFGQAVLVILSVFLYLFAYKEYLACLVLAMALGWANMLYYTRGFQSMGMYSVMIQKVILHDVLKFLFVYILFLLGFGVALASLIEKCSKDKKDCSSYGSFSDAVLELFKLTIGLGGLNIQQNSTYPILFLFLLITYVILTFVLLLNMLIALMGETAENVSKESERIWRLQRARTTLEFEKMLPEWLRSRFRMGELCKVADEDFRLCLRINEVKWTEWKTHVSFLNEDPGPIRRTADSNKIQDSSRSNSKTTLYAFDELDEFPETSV
Also noted: method as in PMID 21175579, PMID 21726418.

For the next data set, the target named is T6, rat TRPV4 (Rattus norvegicus, UniProt Q9ERZ8).
T6 construct: expressed in transfected cells; host or cells: HEK-293
T6 sequence (Q9ERZ8 whole entry): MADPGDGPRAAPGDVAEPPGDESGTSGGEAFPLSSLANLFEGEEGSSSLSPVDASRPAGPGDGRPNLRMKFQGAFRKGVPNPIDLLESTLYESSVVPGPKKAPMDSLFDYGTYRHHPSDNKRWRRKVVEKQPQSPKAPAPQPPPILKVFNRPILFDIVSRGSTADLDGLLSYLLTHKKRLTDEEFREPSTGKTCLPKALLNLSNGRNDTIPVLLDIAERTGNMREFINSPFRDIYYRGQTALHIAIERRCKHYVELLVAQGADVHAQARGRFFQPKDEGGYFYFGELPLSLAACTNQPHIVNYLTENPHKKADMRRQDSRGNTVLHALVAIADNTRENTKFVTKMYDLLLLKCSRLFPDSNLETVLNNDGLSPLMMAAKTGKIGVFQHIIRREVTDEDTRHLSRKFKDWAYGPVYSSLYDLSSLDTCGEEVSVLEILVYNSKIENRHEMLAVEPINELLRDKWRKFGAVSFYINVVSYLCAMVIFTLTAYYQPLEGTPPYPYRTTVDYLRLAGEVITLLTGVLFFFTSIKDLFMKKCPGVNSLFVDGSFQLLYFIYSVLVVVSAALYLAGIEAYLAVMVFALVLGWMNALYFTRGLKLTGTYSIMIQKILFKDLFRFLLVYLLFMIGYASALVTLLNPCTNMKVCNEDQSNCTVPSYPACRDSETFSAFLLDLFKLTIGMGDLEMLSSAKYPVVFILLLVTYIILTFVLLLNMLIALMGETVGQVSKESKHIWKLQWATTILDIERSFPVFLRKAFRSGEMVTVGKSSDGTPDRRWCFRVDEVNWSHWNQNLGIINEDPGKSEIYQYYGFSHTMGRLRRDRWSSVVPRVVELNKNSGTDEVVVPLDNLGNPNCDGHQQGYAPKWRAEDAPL
Also noted: method as in PMID 21175579, PMID 21726418.

The mark [1] stands for this setting: percentage of the response to ionomycin 4 μM; cited from earlier work.
The mark [2] stands for this setting: read-out: TRPV3 Potency EC50; half-maximal increase in [Ca2+]i; cited from earlier work.
Setting [3] is: read-out: TRPV4 Potency EC50; half-maximal increase in [Ca2+]i; cited from earlier work.

“And” between values parts separate entries of the source, which are not always exact repeats. Identical values can stand only once. Like-named read-outs stand apart in the source and are kept apart here.

T1 sequence (Q6RI86 whole entry): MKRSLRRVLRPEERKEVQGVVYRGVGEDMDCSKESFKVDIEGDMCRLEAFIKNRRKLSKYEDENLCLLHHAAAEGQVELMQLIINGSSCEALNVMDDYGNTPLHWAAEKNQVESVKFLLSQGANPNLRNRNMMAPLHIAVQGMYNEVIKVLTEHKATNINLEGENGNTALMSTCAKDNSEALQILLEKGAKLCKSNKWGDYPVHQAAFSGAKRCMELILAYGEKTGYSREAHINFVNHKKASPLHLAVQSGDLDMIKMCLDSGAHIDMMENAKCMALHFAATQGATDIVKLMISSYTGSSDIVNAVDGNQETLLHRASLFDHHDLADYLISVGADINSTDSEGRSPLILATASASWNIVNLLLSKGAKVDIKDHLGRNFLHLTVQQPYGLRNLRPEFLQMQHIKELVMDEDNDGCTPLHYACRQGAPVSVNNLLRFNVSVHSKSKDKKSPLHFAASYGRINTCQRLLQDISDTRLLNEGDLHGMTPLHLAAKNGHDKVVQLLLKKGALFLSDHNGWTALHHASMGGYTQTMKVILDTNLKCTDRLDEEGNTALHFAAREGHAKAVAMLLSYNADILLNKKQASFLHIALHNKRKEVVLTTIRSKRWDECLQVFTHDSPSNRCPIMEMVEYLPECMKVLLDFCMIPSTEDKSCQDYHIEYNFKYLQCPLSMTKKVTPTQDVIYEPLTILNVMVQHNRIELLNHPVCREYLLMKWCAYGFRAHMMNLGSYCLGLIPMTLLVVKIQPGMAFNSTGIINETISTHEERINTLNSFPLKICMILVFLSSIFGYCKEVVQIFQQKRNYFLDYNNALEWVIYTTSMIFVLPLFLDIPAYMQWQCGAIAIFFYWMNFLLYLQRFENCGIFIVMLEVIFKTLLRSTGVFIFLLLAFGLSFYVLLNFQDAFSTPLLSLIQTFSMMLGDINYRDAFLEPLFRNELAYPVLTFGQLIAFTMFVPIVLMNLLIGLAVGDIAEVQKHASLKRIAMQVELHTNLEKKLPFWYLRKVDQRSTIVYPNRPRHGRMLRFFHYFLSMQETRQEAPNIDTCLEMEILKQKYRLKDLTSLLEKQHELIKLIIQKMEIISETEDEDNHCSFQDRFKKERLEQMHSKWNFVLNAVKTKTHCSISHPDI
T2 sequence (Q8NER1 whole entry): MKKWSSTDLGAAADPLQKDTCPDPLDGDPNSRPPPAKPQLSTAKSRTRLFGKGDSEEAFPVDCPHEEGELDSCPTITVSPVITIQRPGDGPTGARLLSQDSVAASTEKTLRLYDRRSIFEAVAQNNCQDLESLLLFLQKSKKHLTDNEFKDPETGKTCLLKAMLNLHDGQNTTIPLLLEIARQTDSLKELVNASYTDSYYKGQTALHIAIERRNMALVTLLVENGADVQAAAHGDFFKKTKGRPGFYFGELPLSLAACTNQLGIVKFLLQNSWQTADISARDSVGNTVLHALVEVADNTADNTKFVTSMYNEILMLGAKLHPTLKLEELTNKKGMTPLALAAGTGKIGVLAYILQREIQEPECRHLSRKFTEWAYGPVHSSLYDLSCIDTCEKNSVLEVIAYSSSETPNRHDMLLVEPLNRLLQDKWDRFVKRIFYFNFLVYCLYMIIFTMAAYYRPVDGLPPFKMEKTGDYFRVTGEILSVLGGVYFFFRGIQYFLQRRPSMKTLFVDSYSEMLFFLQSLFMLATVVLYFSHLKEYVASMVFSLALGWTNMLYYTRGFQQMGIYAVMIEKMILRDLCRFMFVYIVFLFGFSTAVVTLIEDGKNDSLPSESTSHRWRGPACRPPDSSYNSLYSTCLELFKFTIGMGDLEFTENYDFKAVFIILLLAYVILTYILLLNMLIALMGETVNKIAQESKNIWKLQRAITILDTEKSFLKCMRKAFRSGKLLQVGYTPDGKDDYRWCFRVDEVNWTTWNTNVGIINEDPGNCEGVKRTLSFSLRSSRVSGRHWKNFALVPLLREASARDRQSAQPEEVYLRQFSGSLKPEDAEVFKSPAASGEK

Consider `CCCCCc1cc(O)c2c(c1)OC(C)(CCC=C(C)C)C=C2` (stereo not shown) [8a, cannabichromene], for which the IC50 on rat TRPA1 (read-out: IC50 TRPA1 (converted)) is 0.37 µM; on human TRPV1 (against agonist capsaicin 0.1 μM; read-out: IC50 TRPV1; cited from earlier work), over 50 µM; at rat TRPM8 (against agonist icilin 0.25 μM; read-out: IC50 TRPM8; cited from earlier work) it was 40.7 µM; on rat TRPV2 (read-out: IC50 TRPV2 (converted)) it was 6.5 µM; at rat TRPV3 (read-out: IC50 TRPV3; against agonist thymol 100 μM; cited from earlier work) it was over 100 µM; at rat TRPV4 (against agonist GSK1016790A 10 nM; read-out: IC50 TRPV4; cited from earlier work), 9.9 µM. In addition, the “TRPA1 Efficacy (%ITC 100 μM)” value at rat TRPA1 is recorded as 119.4 ± 3.1%. The “TRPV1 Efficacy (% IM 4 μM)” value on human TRPV1 (setting [1]) is under 10%. For the same compound, the “TRPV2 Efficacy (% IM 4 μM)” value at rat TRPV2 is on record as under 10%. The “TRPV3 Efficacy (% IM 4 μM)” value on rat TRPV3 (setting [1]) was 20.2 ± 0.4%. Further, the values for the concentration for a half-maximal effect (EC50) at rat TRPV3 (setting [2]) and at rat TRPV4 (half-maximal increase in [Ca2+]i; read-out: TRPV4 Potency EC50; cited from earlier work) were 1.9 µM and 0.6 µM, respectively. The “TRPV4 Efficacy (% IM 4 μM)” value on rat TRPV4 (setting [1]) is 22.9 ± 1.2%.
`CCCCCc1cc(O)c2c(c1)OC(C)(C)c1ccc(C)cc1-2` [9a, cannabinol]: the “TRPA1 Efficacy (%ITC 100 μM)” value at rat TRPA1 is 83.3 ± 12.0%. Besides, the IC50 is 0.4 µM at rat TRPA1 (read-out: IC50 TRPA1) and over 50 µM on human TRPV1 (read-out: IC50 TRPV1; against agonist capsaicin 0.1 μM; cited from earlier work). For the same compound, the “TRPV1 Efficacy (% IM 4 μM)” value on human TRPV1 (setting [1]) is <10 <10%.
For `CCCCCc1cc(O)c2c(c1)OC(C)(C)[C@@H]1CC=C(C)C[C@@H]21` [6a, Δ^8-tetrahydrocannabinol], the “TRPA1 Efficacy (%ITC 100 μM)” value on rat TRPA1 is on record as 117.0 ± 12.0%. Also, the EC50 is 0.23 µM at rat TRPA1 (read-out: TRPA1 Potency EC50, half-maximal increase in [Ca2+]i); 9.5 µM and 5.3 µM at rat TRPV3 (setting [2]); 16.1 ± 4.5 µM on rat TRPV4 (setting [3]). Also, the “TRPV1 Efficacy (% IM 4 μM)” value at human TRPV1 (setting [1]) is reported as under 10%. Moreover, the figures for the IC50 at rat TRPM8 (read-out: IC50 TRPM8; against agonist icilin 0.25 μM; cited from earlier work) and on rat TRPV2 (read-out: IC50 TRPV2) were 0.16 µM and 0.8 µM, respectively. For the same compound, the “TRPV2 Efficacy (% IM 4 μM)” value on rat TRPV2 is 53.0 ± 1.4% and 39.9 ± 2.1%. For the same compound, on rat TRPV3 (setting [1]), the “TRPV3 Efficacy (% IM 4 μM)” value was 18.2 ± 1.0% and 13.1 ± 2.4%. Moreover, on rat TRPV4 (setting [1]), the “TRPV4 Efficacy (% IM 4 μM)” value was <10 <10% and 15.3 ± 1.5%.
With `CCCCCc1cc(O)c(C/C=C(\C)CCC=C(C)C)c(O)c1` [7a, cannabigerol], the “TRPA1 Efficacy (%ITC 100 μM)” value on rat TRPA1 was 99.9 ± 1.1%. For the same compound, the “IC50 TRPV1” value at human TRPV1 (against agonist capsaicin 0.1 μM; cited from earlier work) is on record as “sub/low micromolar range”. Moreover, at human TRPV1 (setting [1]), the “TRPV1 Efficacy (% IM 4 μM)” value is listed as 33.8 ± 2.3%. The “TRPV2 Efficacy (% IM 4 μM)” value at rat TRPV2 is given as 73.6 ± 1.2%. Moreover, the half-inhibitory concentration (IC50) on rat TRPV3 (against agonist thymol 100 μM; read-out: IC50 TRPV3; cited from earlier work) was over 50 µM; on rat TRPV4 (read-out: IC50 TRPV4; against agonist GSK1016790A 10 nM; cited from earlier work) it was 1.3 µM. Further, the EC50 was 1 µM at rat TRPV3 (half-maximal increase in [Ca2+]i; read-out: TRPV3 Potency EC50 (converted); cited from earlier work) and 5.1 µM at rat TRPV4 (setting [3]). For the same compound, the “TRPV3 Efficacy (% IM 4 μM)” value on rat TRPV3 (setting [1]) is recorded as 18.5 ± 0.7%. The “TRPV4 Efficacy (% IM 4 μM)” value at rat TRPV4 (setting [1]) is recorded as 23.7 ± 1.8%.
